Assay results taken from US5863716A, “Treatment of plasmodium” (The Leland Stanford Junior University Board of Trustees, priority 1997, dated 1999).

What was measured:
Toxicity in mice = conditions: mouse, in vivo; over 16 days; preliminary studies; read-out: dose with no significant toxicity
Protocol: (§1) Preparation of test compounds, toxicity and pharmacokinetics in mice: PPMP and its derivatives are made up as a stock solution in ethanol, diluted into sterile saline, warmed up to 37° C. and delivered once or several times a day, either intraperitoneally (i.p.) or intravenously (i.v.). The animals are monitored on a daily basis for signs of toxicities which (from mild to extreme) include abnormal grooming behavior, loss or thinning of hair, enlargement of spleen and loss of activity. 0 to 30 micrograms PPMP/per gm of mouse body weight is administered. Effective anti-parasite concentrations of PPMP are predicted to be at ~2 micrograms of PPMP/gm of mouse body weight. Based on preliminary studies, 8-10 micrograms of PPMP per gram of (mouse) body weight have no significant toxicity over 16 days. Compounds and levels found to be non toxic over 30 days will be further tested for their effects on infections of P. yoelii and P. chabaudi.

P. falciparum strain FCB = assay: Inhibition of intraerythrocytic growth in culture, Giemsa staining after 24 h; type: cell-based, Plasmodium falciparum; conditions: Plasmodium falciparum; 5 μM added to 0-12 h rings; Giemsa staining after 24 h; read-out: [%] inhibition of growth
Description: (§2) P. falciparum strain FCB was used for all experiments and cultured in vitro in according to a modification of the method of Trager and Jensen left off. Trager, W. and Jensen, J. B. (1976) Human malaria in continuous culture., Science (Wash. D.C.) 193: 673-675 Haldar, K., Ferguson, M. A. J. and Cross, G. A. M. (1985) Acylation of a Plasmodium falciparum merozoite surface antigen via sn-1, 2-diacyl glycerol. J. Biol. Chem. 260; 4969-4974. The culture medium contained RPMI 1640 supplemented with 25 Mm hepes, Ph 7.4/11 […] glucose/92 μM hypoxanthine/0.18% sodium bicarbonate/25 μM gentamicin and 10% AB^+ human sera. The parasites were grown in A^+ erythrocytes at 2.5-5% hematocrit. Parasite cultures were synchronized by separation of the early and late stages on a Percoll gradient. The subsequent reincubation of these stages in culture were used to obtain cells 12-24 h in the life cycle. Inhibition of sphingomyelin biosynthetic activity using 5 μM of the various compounds was carried out as described in Example 1. 5 μM of the various compounds were added to 0-12 h rings in the culture medium and cells were examined by Giemsa staining after 24 h.

sphingomyelin synthase = assay: Inhibition of plasmodial sphingomyelin biosynthesis in intact infected erythrocytes (C6-NBD-ceramide to C6-NBD-sphingomyelin, TLC); type: cell-based, Plasmodium falciparum
Protocol: 1×10^8 infected cells 24 h after invasion were washed serum-free in RPMI 1640 and preincubated for thirty min at 37° C. in 1 ml of RPMI 1640 containing 0-5 μM or 0-500 μM of PPMP. (C6-NBD-ceramide (N-[7-(4-nitrobenzo-2-oxa-1,3-diazide)]-6-aminocaproyl-D-erythro-sphingosine) was added to each sample at a final concentration of 5 μM, the samples further incubated for 30 min at 37° C. and cellular lipids extracted. C6-NBD-sphingomyelin was resolved by TLC and quantitated by fluorescence spectrophotometry as described previously. Bligh, E. G. and Dyer, W. Y. (1959) A rapid method for total lipid extraction and purification., Can. J. Biochem. Physiol. 37: 911-917. Haldar, K., Uyetake, L., Ahori, N., Elmendorf, H. G. and Lu, W-1. (1991) The accumulation and metabolism of a fluorescent ceramide derivative in Plasmodium falciparum--infected erythrocytes., Mo. Biochem. Parasitol. 49: 143-156. Elmendorf, H. G. and Haldar, K. (1994) Plasmodium falciparum exports the Golgi marker sphingomyelin synthase into a tubovesicular network in the cytoplasm of mature erythrocytes., J. Cell Biol. 124: 449-462. Each value obtained represented the mean of triplicate determinations from five experiments. The arrow bars indicate the standard deviations. The results are depicted in FIG. 1.
as §2

[1] = test system: P. falciparum schizonts and merozoites; assay: Schizont maturation and merozoite invasion in the presence of drug; type: cell-based, Plasmodium falciparum; conditions: 5 μM
Protocol: (§3) Schizont-stage parasites isolated over Percoll were allowed to invade in the presence of RPMI 1640 containing 10% human serum or in the presence of RPMI 1640 containing 10% human serum and 5 μM PPMP. 1×10^8 infected erythrocytes of the appropriate stage were incubated in 1 ml of RPMI 1640 supplemented with 2mg/ml defatted BSA and 20 μM C5 -DMB-ceramide. Cells were washed and fixed as described in Example 5. Sequential micrographs were taken on a custom made laser confocal microscope at 400 nm intervals along the Z axis. Raw data were processed as described previously.
Furthermore, the released daughter merozoites enter red cells to form new rings in the continued presence of the drug. This supports the conclusion that the parasite sphingomyelin synthase is essential only to ring and trophozoite-infected red cells in the first 30 to 36 h of intraerythrocytic development.
To determine whether the parasite specific sphingomyelin synthase activity is required for the development of the TVM, ring-infected erythrocytes inhibited in the enzyme from the onset of intra- erythrocytic development were employed. […] Optical sections obtained by staining with C5 DMB-ceramide were observed. A tubular structure was seen extending from the body of the parasite apparently connected to a larger vesicle in the red cell. In rings formed in the presence of PPMP, the intraerythrocytic structures are seen as discrete domains, separated from each other in all three sections. […] Thus, specific inhibition of the parasite's sphingomyelin biosynthetic activity appears to alter the interconnected "tubovesicular morphology" of the TVM into isolated intraerythrocytic compartments or "vesicles" in ring stage parasites.

[2] = test system: P. yoelii and P. chabaudi; assay: Anti-parasite effect in infected mice; type: in vivo, mouse
Protocol: as §1
Effects of PPMP/other lead compounds on non lethal and lethal strains of P. yoelii and P. chabaudi. Both lethal and non lethal strains of P. yoelii have a 24 h cycle. For both strains, parasites can be injected i.p., with an innoculum of 5×10^5 parasites. […]
Mice are injected with the inhibitor on day 1. […] On subsequent days the drugs is delivered once a day and the parasitemia is monitored by tail bleeds. […]

[3] = test system: tubovesicular membrane reticulum (TVM) of P. falciparum-infected erythrocytes; assay: Tubovesicular membrane (TVM) morphology, C5-DMB-ceramide labeling, confocal microscopy; type: cell-based; conditions: 5 μM
Protocol: Serial sections through P. falciparum-infected erythrocytes labeled with C5 -DMB-ceramide (4,4-difluoro-5,7-dimethyl-4-bora-3a,4a-diaza-5-indacene-3-pentanoyl)-sphingosine) 12 h (rings) and 36 h (trophozoites) after invasion.
as §3

protein synthesis = assay: Effect on protein synthesis; type: cell-based
DNA synthesis = assay: Effect on DNA synthesis; type: cell-based

CCCCCCCCCCCCCCCC(=O)N[C@H](CN1CCOCC1)[C@H](O)c1ccccc1 (relative stereo) [PPMP, dl-threo-1-phenyl-2-palmitoylamino-3-morpholino-1-propanol]
NOAEL at 384 h (Toxicity in mice): 8 to 10 mg/kg
inhibition at 5 µM (P. falciparum strain FCB): 100%
effect on sphingomyelin synthase activity (sphingomyelin synthase; 0.05-0.5 μM PPMP): initial, rapid decrease in the sphingomyelin synthase activity
concentration at which the second pool of enzyme is quantitatively inhibited (sphingomyelin synthase; second pool): 100 to 500 µM
concentration at which the sensitive pool of sphingomyelin synthase is completely inhibited (sphingomyelin synthase; sensitive pool): 1 to 5 µM
effect on schizont maturation and merozoite invasion into erythrocytes [1]: not to block either schizont maturation or merozoite invasion into erythrocytes
fate of schizonts greater than 40 h in the cycle [1]: mature and rupture
development of rings formed in drug after washing free of the drug ([1]; then washout): developed normally in culture
effective anti-parasite concentration (predicted) [2]: ~ 2 micrograms of PPMP/gm of mouse body weight
TVM morphology in rings formed in the presence of drug ([3]; 240 optical sections through 20 cells): markedly devoid of tubular connections
intraerythrocytic structures at 36 h in continued presence of drug ([3]; 36 h in the life cycle): remain as isolated spots
inhibition of protein synthesis (protein synthesis): not inhibitory
inhibition of DNA synthesis (DNA synthesis): not inhibitory
